Assay results: ChEMBL document CHEMBL2176866, “Progress in the development and application of small molecule inhibitors of bromodomain-acetyl-lysine interactions” (J Med Chem, 2012)

What was measured:
[1] = AUC (infinity) in mouse; format: ADME, organism-based; set-up: time infinity; conditions: plasma
[2] = Half life in mouse; format: ADME, organism-based; conditions: in vivo

CCNC(=O)C[C@@H]1N=C(c2ccc(Cl)cc2)c2cc(OC)ccc2-n2c(C)nnc21 [MOLIBRESIB]
AUC(0-inf) [1]: 40 µM·h
half-life [2]: 1.6 h

COc1cc2c(cc1-c1c(C)noc1C)ncc1[nH]c(=O)n([C@H](C)c3ccccn3)c12
AUC(0-inf) [1]: 680 µM·h
half-life [2]: 7.2 h
